Our source for the IC50 values is US10774051B2, “6-membered heterocyclic derivatives and pharmaceutical composition comprising the same” (Shionogi & Co., Ltd., priority 2015, dated 2020).

In the first test the target is human P2X7 receptor (Homo sapiens, UniProt Q99572, R270H/Y155H). The test can be described thus: Evaluation of human P2X7 receptor inhibitory activity (Yo-Pro uptake, BzATP stimulation, FLIPR TETRA). It counts as cell-based. The note with it: 1321N1 cells stably expressing human P2X7 receptor; BzATP stimulation, Yo-Pro uptake; read-out: IC50 (antagonistic activity for the human P2X7 receptor). In a few lines: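 1321N1 cells stably expressing human P2X7 (T606C/G952A SNP variant), in HBSS buffer pH 7.4-7.5 with Yo-Pro, stimulated with BzATP; compound added 8 min after agonist. Fluorescence followed for 20 min on FLIPR; max-minus-min change gave % inhibition, IC50 by logistic fit.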
Turning to `Cc1cc(C)c(Nc2nc(=O)c(C(N)=O)cn2Cc2ccccc2)cc1C` [Compound I-0218], the IC50 stood at 19 nM.

On to `COc1cn(Cc2ccc(C(F)(F)F)cc2)c(Nc2cccc(Cl)c2C)nc1=O` [Compound I-0297], for which the IC50 turned out to be 250 nM.

`Cc1c(Cl)cccc1Nc1nc(=O)c(C(=O)NC2CCOCC2)cn1Cc1ccccc1` [Compound I-0019]: the IC50 is 49 nM.

In the case of `COc1cn(Cc2cc(F)cc(F)c2)c(Nc2cccc(SC)c2C)nc1=O` [Compound I-0550], the IC50 was determined as 2 nM.

The test is the same for the next values; noted with them: 1321N1 cells stably expressing human P2X7 receptor; BzATP stimulation, Yo-Pro uptake; read-out: IC50 (antagonistic activity for the human P2X7 receptor), class symbol.
`COc1ccc(Nc2nc(=O)c(OC)cn2Cc2cccc(F)c2)c(C)c1` [Compound I-0249]: the IC50 was less than 10 nM.

In the case of `Cc1c(Cl)cccc1Nc1nc(=O)c(CC(N)=O)cn1Cc1ccccc1` [Compound I-0026], the IC50 was 10 to 100 nM.

For the compound `COc1cn(Cc2ccccc2)c(Nc2cc(Cl)c(Cl)cc2C)nc1=O` [Compound I-0448], the IC50 lay in the range of 10 to 100 nM.

As to `Cc1ccccc1Cn1cc(O)c(=O)nc1Nc1cccc(C(F)(F)F)c1Cl` [Compound I-0015], the IC50 was in the range of 500 to 1000 nM.

Regarding `COc1cn(Cc2ccccc2)c(Nc2cc(N3CCN(C(=O)OC(C)(C)C)CC3)ccc2C)nc1=O` [Compound I-0411], the IC50 lay in the range of 100 to 500 nM.

As for `COc1c(C)ccc(Nc2nc(=O)c(OC)cn2Cc2ccccc2)c1C` [Compound I-0410], the IC50 was less than 10 nM.

Turning to `COc1ccc(Nc2nc(=O)c(OC)cn2Cc2ccc(F)c(Cl)c2)c(C)c1C` [Compound I-0394], the IC50 was less than 10 nM.

`CCOc1cc(C)c(Nc2nc(=O)c(OC)cn2Cc2ccc(F)cc2)cc1C` [Compound I-0258]: the IC50 is less than 10 nM.

Take `COc1cn(Cc2ccc(F)c(Cl)c2)c(Nc2cc(-n3c(C)ccc3C)ccc2C)nc1=O` [Compound I-0526]: the concentration for half-maximal inhibition (IC50) lay within 10 to 100 nM.

With `COc1cn(Cc2ccc(F)cc2)c(Nc2ccc(C)cc2C)nc1=O` [Compound I-0375], the IC50 is 10 to 100 nM.

On to `COc1cn(Cc2ccc(F)c(Cl)c2)c(Nc2cc(N3CCCC3=O)ccc2C)nc1=O` [Compound I-0399], for which the IC50 was less than 10 nM.

For `COc1cn(Cc2ccc(F)c(F)c2)c(Nc2cc(C)ccc2C)nc1=O` [Compound I-0434], the IC50 is less than 10 nM.

As to `COc1cn(Cc2ccc(F)c(Cl)c2)c(Nc2cc(C(C)(C)C)ccc2C)nc1=O` [Compound I-0501], the IC50 was 10 to 100 nM.

`COc1cn(Cc2ccc(F)c(Cl)c2)c(Nc2cccc(SC)c2C)nc1=O` [Compound I-0430]: the IC50 was less than 10 nM.

For the compound `CCc1ccc(OC)cc1Nc1nc(=O)c(OC)cn1Cc1ccc(F)c(F)c1` [Compound I-0255], the IC50 was less than 10 nM.

As to `COc1cn(Cc2ccccc2)c(Nc2ccc(N3CCOCC3)cc2C)nc1=O` [Compound I-0204], the IC50 is 100 to 500 nM.

Turning to `CCc1cc(OC)ccc1Nc1nc(=O)c(OC)cn1Cc1cccc(F)c1` [Compound I-0261], the IC50 is less than 10 nM.

With `COc1cn(Cc2ccc(F)c(F)c2)c(Nc2cc3[nH]ncc3cc2C)nc1=O` [Compound I-0491], the IC50 was less than 10 nM.

Regarding `COc1cn(Cc2cccc(Cl)c2)c(Nc2cc(OCC(F)(F)F)ccc2C)nc1=O` [Compound I-0494], the IC50 fell in the range of 10 to 100 nM.

For `COc1cn(Cc2cc(F)cc(F)c2)c(Nc2cc(OC(C)C)ccc2C)nc1=O` [Compound I-0556], the half-inhibitory concentration (IC50) lay within 10 to 100 nM.

Take `COc1cc(C)cc(Nc2nc(=O)c(OC)cn2Cc2ccc(F)c(Cl)c2)c1C` [Compound I-0424]: the IC50 is less than 10 nM.

`COc1cn(Cc2ccccc2)c(Nc2cc(Br)ccc2Cl)nc1=O` [Compound I-0144]: the half-inhibitory concentration (IC50) was in the range of 100 to 500 nM.

On to `COc1cn(Cc2cccc(Cl)c2)c(Nc2cc3[nH]ncc3cc2C)nc1=O` [Compound I-0490], for which the IC50 is less than 10 nM.

Regarding `COc1cn(Cc2ccc(F)c(F)c2)c(Nc2cc3c(cc2C)OCCO3)nc1=O` [Compound I-0291], the concentration for half-maximal inhibition (IC50) fell in the range of 10 to 100 nM.

Still in this test, the particulars now being: antagonistic activity for the human P2X7 receptor; read-out: IC50.
On to `CCc1ccc(OC)cc1Nc1nc(=O)c(OC)cn1Cc1cc(F)cc(Cl)c1` [Compound I-0657], for which the IC50 was in the range of 10 to 100 nM.

`COc1cn(Cc2cc(F)cc(F)c2)c(Nc2cc(N3CCCC3)ccc2C)nc1=O` [Compound I-0885]: the IC50 was 10 to 100 nM.

Consider `Cc1cccc(Nc2nc(=O)c(F)cn2Cc2cc(F)c(F)c(F)c2)c1F` [Compound I-1185], for which the IC50 was less than 10 nM.

For `Cc1cc(N2CCOCC2)ccc1Nc1nc(=O)ccn1Cc1cc(F)c(F)c(F)c1` [Compound I-1149], the half-inhibitory concentration (IC50) is 10 to 100 nM.

For the compound `COc1cn(Cc2ccc(F)c(Cl)c2)c(Nc2ccc3nc(C)sc3c2C)nc1=O` [Compound I-0859], the half-inhibitory concentration (IC50) was 10 to 100 nM.

In the case of `Cc1nc2cc(C)c(Nc3nc(=O)c(CCO)cn3Cc3cc(F)c(F)c(F)c3)cc2s1` [Compound I-1088], the IC50 lay in the range of 10 to 100 nM.

For `COc1cc(C)c(Nc2nc(=O)c(OC)cn2Cc2ccc(F)cc2)cc1Cl` [Compound I-0615], the IC50 is less than 10 nM.

Turning to `COc1cn(Cc2ccc(F)c(Cl)c2)c(Nc2cc(Cl)ccc2C)nc1=O` [Compound I-0594], the IC50 lay within 10 to 100 nM.

Regarding `COc1cn(Cc2ccc(F)c(Cl)c2)c(Nc2cc(OC(F)(F)F)ccc2C)nc1=O` [Compound I-0692], the IC50 was in the range of 10 to 100 nM.

In the case of `COc1cc(C)c(Nc2nc(=O)ccn2Cc2ccc(F)c(Cl)c2)cc1OC` [Compound I-1159], the IC50 was less than 10 nM.

Take `COc1cn(Cc2ccc(F)c(F)c2)c(Nc2cc(OC(F)F)ccc2C)nc1=O` [Compound I-0873]: the IC50 was 10 to 100 nM.

Consider `COc1cc(C)c(Nc2nc(=O)c(F)cn2Cc2cc(F)cc(F)c2)cc1F` [Compound I-1101], for which the IC50 was in the range of 10 to 100 nM.

In the case of `Cc1cccc(Nc2nc(=O)c(F)cn2Cc2cc(F)c(F)c(F)c2)c1C` [Compound I-1189], the IC50 was less than 10 nM.

As to `Cc1cc(Nc2nc(=O)c(F)cn2Cc2cc(F)c(F)c(F)c2)c(C)cc1F` [Compound I-1227], the 50% inhibitory concentration (IC50) is less than 10 nM.

Regarding `COc1cn(Cc2cc(F)cc(F)c2)c(Nc2cc(Cl)c(F)cc2C)nc1=O` [Compound I-0812], the IC50 is 10 to 100 nM.

Take `COc1nc2ccc(Nc3nc(=O)c(OC)cn3Cc3ccc(F)c(Cl)c3)c(C)c2s1` [Compound I-0826]: the IC50 was 10 to 100 nM.

As to `Cc1cc2[nH]ccc2cc1Nc1nc(=O)c(F)cn1Cc1cc(F)c(F)c(F)c1` [Compound I-1045], the IC50 is less than 10 nM.

For the compound `Cc1cc2c(cc1Nc1nc(=O)c(CCO)cn1Cc1cc(F)c(F)c(F)c1)COC2` [Compound I-1127], the IC50 lay within 10 to 100 nM.

As to `CCOc1ccc(Nc2nc(=O)c(OC)cn2Cc2cccc(Cl)c2)c(C)c1` [Compound I-0677], the IC50 lay in the range of 10 to 100 nM.

Consider `COc1cn(Cc2ccccc2)c(Nc2c(C)ccc(C)c2F)nc1=O` [Compound I-0926], for which the IC50 fell in the range of 10 to 100 nM.

On to `COc1cn(Cc2cc(F)cc(F)c2)c(Nc2cc(C(C)(C)O)ccc2C)nc1=O` [Compound I-0785], for which the IC50 fell in the range of 10 to 100 nM.

Regarding `COCc1cn(Cc2cc(F)c(F)c(F)c2)c(Nc2cc(OC)ccc2C)nc1=O` [Compound I-1138], the IC50 is 10 to 100 nM.

For the compound `COc1cc(F)c(Nc2nc(=O)c(C)cn2Cc2cc(F)c(F)c(F)c2)cc1OC` [Compound I-1133], the IC50 was 10 to 100 nM.

Turning to `COc1ccc(C)c(Nc2nc(=O)c(F)cn2Cc2ccc(F)c(Cl)c2)c1` [Compound I-1067], the IC50 is less than 10 nM.

For the compound `Cc1ccc(CO)cc1Nc1nc(=O)c(F)cn1Cc1cc(F)cc(F)c1` [Compound I-1014], the IC50 is less than 10 nM.

Take `COCc1cn(Cc2cc(F)c(F)c(F)c2)c(Nc2cc(OCCO)ccc2C)nc1=O` [Compound I-1125]: the IC50 lay in the range of 10 to 100 nM.
